# Experimental data from patent publication US20200079906A1, “PHOTODYNAMIC THERAPY COMPLEX” (University College Cardiff Consultants Limited, priority 2015, published 2020).
# “Also recorded” adds a separate entry of the source.
# Tests used:
# Assay in all cases: Antimicrobial photodynamic protocol, viable cell count after laser exposure
# Type in all cases: cell-based
# [1] = test system: Escherichia coli (NCTC10418); details: E. coli; for Antimicrobial activity (Log10 reduction of viable cells): green laser, 3 min laser exposure
# Experimental: (§1) The organisms used in this study were Escherichia coli (NCTC10418) and Staphylococcus epidermidis (ATCC12228), Pseudomonas aeruginosa (NCIMB10548), Methicillin Resistant Staphylococcus aureus (NCTC12493), Streptococcus pyogenes (ATCC19615) and Acinetobacter baumannii (NCIMB9214); they were stored at −80° C. These organisms were subcultured, when needed, on Brain Heart Infusion (BHI) Agar overnight aerobically at 37° C. The plates were then stored at 4° C. for no more than two weeks. Bacterial suspensions used for the experiments were grown in Brain Heart Infusion (BHI) broth after inoculation with a loopful of cells from a single colony on a BHI plate and incubated aerobically for 24 h at 37° C. statically. These overnight cultures were then diluted 1 in 100 in PBS. The resulting bacterial suspension contained approximately 10^6 CFU/mL. Each cell suspension was used to disperse pure PS, e.g. PBAE-TBO, to concentrations of 0.2 mg/mL or PBAEs-PS derivatives to an equivalent PS concentration.
# (§2) 200 μL aliquots of the resulting suspension were immediately poured in a GREINER 96 U-BOTTOM well plate. The well plate was then irradiated with a laser light (633 nm) using a 500 mW red laser (RRL-635 nm-500 mW-1080060, Changchun New Industries Optoelectronics, China) or a 500 mW green laser (MGL-FN-532 nm-500 mW-15097031, Changchun New Industries Optoelectronics, China) for different time periods (between 5 sec to 3 min). The red laser was employed for TBO while the green laser was used for RB and ERY.
# (§3) After exposure the bacterial cells (L+S+) were counted through serial dilutions and then plating on BHI Agar. Along this test, different experiments were performed including the testing of dark toxicity (labelled with L−S+), samples exposed uniquely to laser light (L+S−) or samples not expose to either laser light and PBAE (L−S−).
# (§4) Through the experiment prepared samples, well plates and inoculated plates were immediately covered with aluminium foil to reduce biased measuring results due to exposure of any light besides the laser. All plates were incubated after the experiment for 24 hours at 37° C. All experiments were performed on three independent cultures.
# [2] = test system: Methicillin Resistant Staphylococcus aureus (NCTC12493); details: for Antimicrobial activity (Log10 reduction of viable cells): green laser, 5 sec, MRSA NCTC12493
# Experimental: as §1, §2, §3, §4
# [3] = test system: Acinetobacter baumannii (NCIMB9214); details: TBO series, A. baumannii
# Experimental: as §1, §2, §3, §4
# [4] = test system: Pseudomonas aeruginosa (NCIMB10548); details: TBO series, P. aeruginosa
# Experimental: as §1, §2, §3, §4
# [5] = test system: Staphylococcus epidermidis (ATCC12228); details: TBO series
# Experimental: as §1, §2, §3, §4
# [6] = test system: Streptococcus pyogenes (ATCC19615); details: TBO series
# Experimental: as §1, §2, §3, §4
# [7] = L+S+, red laser, 0.2 mg/mL TBO equivalent
smiles,measurement,setting,value
"O=C([O-])c1c(Cl)c(Cl)c(Cl)c(Cl)c1-c1c2cc(I)c(=O)c(I)c-2oc2c(I)c([O-])c(I)cc12.[Na+].[Na+] [RB, Rose Bengal]",Antimicrobial activity (Log10 reduction of viable cells),[1]; RB series,exhibit antimicrobial activity
same,Antimicrobial activity (Log10 reduction of viable cells),[2]; RB series,exhibit antimicrobial activity
"Cc1cc2nc3ccc(=[N+](C)C)cc-3sc2cc1N.[Cl-] [TBO, Toluidine Blue O]",Antimicrobial effect of laser exposure (reduction of viable cells),[3]; [7],tendencies of progressive reduction
same,Cell reduction without irradiation (dark toxicity),[3]; L-S+,did not return any cell reduction
same,Antimicrobial effect of laser exposure (reduction of viable cells),"[1]; TBO series, L+S+, red laser, 0.2 mg/mL TBO equivalent",tendencies of progressive reduction
same,Cell reduction without irradiation (dark toxicity),"[1]; TBO series, L-S+",did not return any cell reduction
same,Antimicrobial effect of laser exposure (reduction of viable cells),"[2]; TBO series, L+S+, red laser, 0.2 mg/mL TBO equivalent, MRSA",tendencies of progressive reduction
same,Cell reduction without irradiation (dark toxicity),"[2]; TBO series, L-S+, MRSA",did not return any cell reduction
same,Antimicrobial effect of laser exposure (reduction of viable cells),[4]; [7],tendencies of progressive reduction
same,Cell reduction without irradiation (dark toxicity),[4]; L-S+,did not return any cell reduction
same,Antimicrobial effect of laser exposure (reduction of viable cells),[5]; [7],tendencies of progressive reduction
same,Cell reduction without irradiation (dark toxicity),[5]; L-S+,did not return any cell reduction
same,Antimicrobial effect of laser exposure (reduction of viable cells),[6]; [7],tendencies of progressive reduction
same,Cell reduction without irradiation (dark toxicity),[6]; L-S+,did not return any cell reduction
"O=C1OC2(c3ccccc31)c1cc(I)c(O)c(I)c1Oc1c2cc(I)c(O)c1I [ERY, Erythrosin B]",Antimicrobial activity (Log10 reduction of viable cells),[1]; ERY series,exhibit antimicrobial activity; also recorded: not as effective as RB
same,Antimicrobial activity (Log10 reduction of viable cells),[2]; ERY series,exhibit antimicrobial activity; also recorded: not as effective as RB
